The results in this text go back to patent US10344060B2 (priority 2013, dated 2019).

Experiment in all cases: cell-based
Format in all cases: cell-based

One assay addresses hNav1.6 (Homo sapiens, UniProt Q9UQD0). Conditions: Table 15; for Nav1.6/Nav1.7: ratio of PX tonic IC50 values; for IC50: read-out: PX hNav1.6 Tonic IC50.
The target in another assay is hNav1.4 (Homo sapiens, UniProt P35499). Particulars: Table 12; for IC50: PatchXpress, tonic block, read-out: PX hNav1.4 Tonic IC50; for Nav1.4/Nav1.7: ratio of PX tonic IC50 values.
In another assay the target is hNav1.7 (Homo sapiens, UniProt Q15858). Particulars: Table 12; PatchXpress, tonic block; read-out: PX hNav1.7 Tonic IC50.
Chain of hNav1.7 (Q15858 whole entry): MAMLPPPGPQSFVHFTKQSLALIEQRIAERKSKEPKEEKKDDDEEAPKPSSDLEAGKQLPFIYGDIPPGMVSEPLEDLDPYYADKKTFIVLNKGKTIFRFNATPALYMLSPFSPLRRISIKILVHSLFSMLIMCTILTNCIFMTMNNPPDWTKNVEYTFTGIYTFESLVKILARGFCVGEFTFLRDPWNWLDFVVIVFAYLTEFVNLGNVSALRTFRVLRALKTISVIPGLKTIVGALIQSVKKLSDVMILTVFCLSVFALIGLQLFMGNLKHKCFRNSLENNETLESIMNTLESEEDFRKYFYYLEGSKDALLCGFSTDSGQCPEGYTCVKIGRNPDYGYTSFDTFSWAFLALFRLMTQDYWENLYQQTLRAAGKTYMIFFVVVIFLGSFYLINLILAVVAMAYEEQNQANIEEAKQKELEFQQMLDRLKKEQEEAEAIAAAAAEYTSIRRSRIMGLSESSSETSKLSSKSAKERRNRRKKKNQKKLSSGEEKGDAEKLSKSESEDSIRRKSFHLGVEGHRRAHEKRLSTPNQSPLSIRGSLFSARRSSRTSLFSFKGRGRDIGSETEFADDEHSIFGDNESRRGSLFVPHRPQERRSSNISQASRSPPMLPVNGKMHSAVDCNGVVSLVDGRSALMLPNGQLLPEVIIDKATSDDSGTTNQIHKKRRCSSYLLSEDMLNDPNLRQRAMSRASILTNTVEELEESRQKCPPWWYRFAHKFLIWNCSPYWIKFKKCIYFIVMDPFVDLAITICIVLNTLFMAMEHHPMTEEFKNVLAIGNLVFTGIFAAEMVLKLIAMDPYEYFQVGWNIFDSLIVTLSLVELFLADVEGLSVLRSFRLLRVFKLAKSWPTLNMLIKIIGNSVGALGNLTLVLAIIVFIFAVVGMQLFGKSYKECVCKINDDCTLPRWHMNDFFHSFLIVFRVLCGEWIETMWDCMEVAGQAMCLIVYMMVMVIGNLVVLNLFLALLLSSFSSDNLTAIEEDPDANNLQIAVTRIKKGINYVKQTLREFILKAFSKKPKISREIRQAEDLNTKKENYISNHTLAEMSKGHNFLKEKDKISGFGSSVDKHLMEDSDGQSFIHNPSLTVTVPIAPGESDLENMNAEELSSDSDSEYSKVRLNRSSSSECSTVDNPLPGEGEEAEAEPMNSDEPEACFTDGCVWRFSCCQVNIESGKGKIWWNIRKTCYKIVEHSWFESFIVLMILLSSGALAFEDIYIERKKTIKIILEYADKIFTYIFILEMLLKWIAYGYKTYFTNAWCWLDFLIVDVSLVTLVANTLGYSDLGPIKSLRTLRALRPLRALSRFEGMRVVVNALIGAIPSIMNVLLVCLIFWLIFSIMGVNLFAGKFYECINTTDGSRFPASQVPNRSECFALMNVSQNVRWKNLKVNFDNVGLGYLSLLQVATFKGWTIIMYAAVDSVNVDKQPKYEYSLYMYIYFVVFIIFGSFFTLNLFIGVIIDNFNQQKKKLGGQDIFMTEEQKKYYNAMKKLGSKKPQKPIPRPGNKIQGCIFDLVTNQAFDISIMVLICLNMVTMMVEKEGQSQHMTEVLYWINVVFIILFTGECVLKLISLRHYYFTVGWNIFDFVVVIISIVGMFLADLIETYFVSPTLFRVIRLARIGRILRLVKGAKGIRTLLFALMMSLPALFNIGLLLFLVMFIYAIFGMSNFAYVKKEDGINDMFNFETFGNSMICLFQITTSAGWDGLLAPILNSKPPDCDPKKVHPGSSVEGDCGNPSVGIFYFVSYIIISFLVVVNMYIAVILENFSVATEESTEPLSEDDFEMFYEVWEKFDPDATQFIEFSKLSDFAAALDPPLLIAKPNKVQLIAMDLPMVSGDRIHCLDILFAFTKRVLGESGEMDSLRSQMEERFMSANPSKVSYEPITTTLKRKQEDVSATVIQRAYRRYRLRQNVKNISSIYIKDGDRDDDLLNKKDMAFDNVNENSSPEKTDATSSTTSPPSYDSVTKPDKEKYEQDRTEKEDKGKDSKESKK

Chain of hNav1.6 (Q9UQD0 whole entry): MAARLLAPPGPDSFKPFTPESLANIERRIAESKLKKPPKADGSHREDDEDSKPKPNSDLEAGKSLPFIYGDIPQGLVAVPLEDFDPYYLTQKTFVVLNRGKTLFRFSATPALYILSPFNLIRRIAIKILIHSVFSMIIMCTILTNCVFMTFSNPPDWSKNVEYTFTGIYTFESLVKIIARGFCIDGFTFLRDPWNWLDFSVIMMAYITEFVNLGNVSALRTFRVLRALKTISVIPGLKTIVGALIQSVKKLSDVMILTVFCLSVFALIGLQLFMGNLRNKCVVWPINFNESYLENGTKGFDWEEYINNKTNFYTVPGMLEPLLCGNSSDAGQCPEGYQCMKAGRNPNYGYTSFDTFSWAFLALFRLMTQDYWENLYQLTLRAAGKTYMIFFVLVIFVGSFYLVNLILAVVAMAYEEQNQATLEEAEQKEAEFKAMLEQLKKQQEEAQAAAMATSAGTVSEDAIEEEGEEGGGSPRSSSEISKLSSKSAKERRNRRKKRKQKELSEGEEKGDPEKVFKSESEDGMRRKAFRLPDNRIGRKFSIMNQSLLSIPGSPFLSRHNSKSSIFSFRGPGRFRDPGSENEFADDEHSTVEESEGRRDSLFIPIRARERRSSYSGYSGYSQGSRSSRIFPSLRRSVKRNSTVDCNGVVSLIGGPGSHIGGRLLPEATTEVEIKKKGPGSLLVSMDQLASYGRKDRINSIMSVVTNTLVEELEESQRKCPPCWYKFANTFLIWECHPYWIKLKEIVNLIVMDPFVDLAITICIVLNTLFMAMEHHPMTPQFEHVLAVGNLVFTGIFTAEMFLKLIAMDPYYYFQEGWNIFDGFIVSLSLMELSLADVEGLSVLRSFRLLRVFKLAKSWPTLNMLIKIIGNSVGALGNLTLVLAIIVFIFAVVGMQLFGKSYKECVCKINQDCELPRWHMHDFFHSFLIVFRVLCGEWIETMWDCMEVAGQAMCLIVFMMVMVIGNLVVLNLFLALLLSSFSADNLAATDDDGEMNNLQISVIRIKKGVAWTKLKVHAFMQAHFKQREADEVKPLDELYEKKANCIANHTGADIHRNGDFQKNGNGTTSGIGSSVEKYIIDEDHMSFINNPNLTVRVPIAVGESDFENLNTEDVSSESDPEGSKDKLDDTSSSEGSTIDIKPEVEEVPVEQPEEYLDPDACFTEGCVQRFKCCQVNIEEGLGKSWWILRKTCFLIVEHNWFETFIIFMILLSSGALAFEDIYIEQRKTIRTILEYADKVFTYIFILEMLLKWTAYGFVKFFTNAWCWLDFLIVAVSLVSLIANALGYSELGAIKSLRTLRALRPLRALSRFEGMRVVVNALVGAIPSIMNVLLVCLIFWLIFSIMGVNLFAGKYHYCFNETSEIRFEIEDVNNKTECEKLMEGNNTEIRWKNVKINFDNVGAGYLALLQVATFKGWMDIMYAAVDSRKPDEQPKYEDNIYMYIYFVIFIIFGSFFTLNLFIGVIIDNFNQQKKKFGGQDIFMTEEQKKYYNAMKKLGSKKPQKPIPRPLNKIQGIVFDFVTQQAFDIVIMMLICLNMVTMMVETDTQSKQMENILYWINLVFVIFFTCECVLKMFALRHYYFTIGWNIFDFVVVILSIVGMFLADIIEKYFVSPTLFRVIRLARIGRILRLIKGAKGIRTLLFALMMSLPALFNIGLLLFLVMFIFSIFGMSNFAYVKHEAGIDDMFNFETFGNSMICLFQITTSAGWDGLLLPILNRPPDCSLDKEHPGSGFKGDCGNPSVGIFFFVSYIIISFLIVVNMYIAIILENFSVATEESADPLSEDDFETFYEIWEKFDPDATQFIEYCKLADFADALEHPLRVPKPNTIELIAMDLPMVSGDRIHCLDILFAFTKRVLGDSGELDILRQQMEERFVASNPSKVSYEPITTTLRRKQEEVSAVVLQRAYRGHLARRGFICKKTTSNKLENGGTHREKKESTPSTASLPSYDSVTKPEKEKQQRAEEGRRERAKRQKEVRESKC

On to `C#CC[C@H](NC(=O)[C@@H](N)CCC(=O)O)C(=O)N[C@@H](Cc1ccc(O)cc1)C(=O)N[C@H]1CSSC[C@@H]2NC(=O)[C@@H]3CSSC[C@@H](C(=O)N[C@@H](CCCNC(=N)N)C(=O)N[C@@H](CCCCN)C(=O)N[C@@H](CCC(=O)O)C(=O)N[C@H](C(N)=O)[C@@H](C)CC)NC(=O)[C@H](Cc4c[nH]c5ccccc45)NC(=O)[C@H](CC(C)C)NC(=O)[C@H](CCCCN)NC(=O)[C@H](CSSC[C@H](NC(=O)[C@H]([C@@H](C)O)NC(=O)[C@H](Cc4c[nH]c5ccccc45)NC(=O)[C@H](CCCC)NC(=O)[C@H](Cc4c[nH]c5ccccc45)NC(=O)[C@H](CCCCN)NC(=O)[C@H](CCC(N)=O)NC1=O)C(=O)N[C@@H](CC(=O)O)C(=O)N[C@@H](CO)C(=O)N[C@@H](CCCCN)C(=O)N[C@@H](CCCNC(=N)N)C(=O)N[C@@H](C)C(=O)N3)NC(=O)[C@H](CCCNC(=N)N)NC(=O)[C@H](CC(C)C)NC(=O)CNC(=O)[C@H](CCC(=O)O)NC2=O` [compound 707], for which, at hNav1.6, the Nav1.6/Nav1.7 is recorded as 236 and the IC50 came to 174 nM. Further, at hNav1.4, the IC50 was determined as 112 nM and the Nav1.4/Nav1.7 is 152. The IC50 at hNav1.7 turned out to be 0.738 nM.
In the same order, the values of `C#CC[C@H](N)C(=O)N[C@@H](Cc1ccc(O)cc1)C(=O)N[C@H]1CSSC[C@@H]2NC(=O)[C@@H]3CSSC[C@@H](C(=O)N[C@@H](CCCNC(=N)N)C(=O)N[C@@H](CCCCN)C(=O)N[C@@H](CCC(=O)O)C(=O)N[C@H](C(N)=O)[C@@H](C)CC)NC(=O)[C@H](Cc4c[nH]c5ccccc45)NC(=O)[C@H](CC(C)C)NC(=O)[C@H](CCCCN)NC(=O)[C@H](CSSC[C@H](NC(=O)[C@H](CCC(=O)O)NC(=O)[C@H](Cc4c[nH]c5ccccc45)NC(=O)[C@H](CCCC)NC(=O)[C@H](Cc4c[nH]c5ccccc45)NC(=O)[C@H](CCCCN)NC(=O)[C@H](CCC(N)=O)NC1=O)C(=O)N[C@@H](CC(=O)O)C(=O)N[C@@H](CO)C(=O)N[C@@H](CCCCN)C(=O)N[C@@H](CCCNC(=N)N)C(=O)N[C@@H](C)C(=O)N3)NC(=O)[C@H](CCCNC(=N)N)NC(=O)[C@H](CC(C)C)NC(=O)CNC(=O)[C@H](CCC(=O)O)NC2=O` [compound 712] are 395, 6460 nM, 1580 nM, 97 and 16.4 nM.
In the same order, the values of `C#CC[C@H](N)C(=O)N[C@@H](Cc1ccc(O)cc1)C(=O)N[C@H]1CSSC[C@@H]2NC(=O)[C@@H]3CSSC[C@@H](C(=O)N[C@@H](CCCNC(=N)N)C(=O)N[C@@H](CCCCN)C(=O)N[C@@H](CCC(=O)O)C(=O)N[C@H](C(N)=O)[C@@H](C)CC)NC(=O)[C@H](Cc4c[nH]c5ccccc45)NC(=O)[C@H](CC(C)C)NC(=O)[C@H](CCCCN)NC(=O)[C@H](CSSC[C@H](NC(=O)[C@H]([C@@H](C)O)NC(=O)[C@H](Cc4c[nH]c5ccccc45)NC(=O)[C@H](CCCC)NC(=O)[C@H](Cc4c[nH]c5ccccc45)NC(=O)[C@H](CCCCN)NC(=O)[C@H](CCC(N)=O)NC1=O)C(=O)N[C@@H](CC(=O)O)C(=O)N[C@@H](CO)C(=O)N[C@@H](CCCCN)C(=O)N[C@@H](CCCNC(=N)N)C(=O)N[C@@H](C)C(=O)N3)NC(=O)[C@H](CCCNC(=N)N)NC(=O)[C@H](CC(C)C)NC(=O)CNC(=O)[C@H](CCCCN)NC2=O` [compound 718] are 104, 148 nM, 33.9 nM, 24 and 1.42 nM.
`C#CC[C@H](N)C(=O)N[C@@H](Cc1ccc(O)cc1)C(=O)N[C@H]1CSSC[C@@H]2NC(=O)[C@@H]3CSSC[C@@H](C(=O)N[C@@H](CCCNC(=N)N)C(=O)N[C@@H](CCCCN)C(=O)N[C@@H](CCC(=O)O)C(=O)N[C@H](C(N)=O)[C@@H](C)CC)NC(=O)[C@H](Cc4c[nH]c5ccccc45)NC(=O)[C@H](CC(C)C)NC(=O)[C@H](CCCCN)NC(=O)[C@H](CSSC[C@H](NC(=O)[C@H]([C@@H](C)O)NC(=O)[C@H](Cc4c[nH]c5ccccc45)NC(=O)[C@H](CCCC)NC(=O)[C@H](Cc4c[nH]c5ccccc45)NC(=O)[C@H](CCCCN)NC(=O)[C@H](CCC(N)=O)NC1=O)C(=O)N[C@@H](CC(=O)O)C(=O)N[C@@H](CO)C(=O)N[C@@H](CCCCN)C(=O)N[C@@H](CCCNC(=N)N)C(=O)N[C@@H](C)C(=O)N3)NC(=O)[C@H](CCCCN)NC(=O)[C@H](CC(C)C)NC(=O)CNC(=O)[C@H](CCC(=O)O)NC2=O` [compound 721]: on hNav1.6, the Nav1.6/Nav1.7 came out at 471 and the IC50 amounted to 245 nM. Besides, on hNav1.4, the IC50 was 185 nM and the Nav1.4/Nav1.7 was 357. Besides, at hNav1.7, the IC50 was found to be 0.519 nM.
For the compound `C#CC[C@H](N)C(=O)N[C@@H](Cc1ccc(O)cc1)C(=O)N[C@H]1CSSC[C@@H]2NC(=O)[C@@H]3CSSC[C@@H](C(=O)N[C@@H](CCCNC(=N)N)C(=O)N[C@@H](CCCCN)C(=O)N[C@@H](CCC(=O)O)C(=O)N[C@H](C(N)=O)[C@@H](C)CC)NC(=O)[C@H](Cc4c[nH]c5ccccc45)NC(=O)[C@H](CC(C)C)NC(=O)[C@H](CCC(=O)O)NC(=O)[C@H](CSSC[C@H](NC(=O)[C@H]([C@@H](C)O)NC(=O)[C@H](Cc4c[nH]c5ccccc45)NC(=O)[C@H](CCCC)NC(=O)[C@H](Cc4c[nH]c5ccccc45)NC(=O)[C@H](CCCCN)NC(=O)[C@H](CCC(N)=O)NC1=O)C(=O)N[C@@H](CC(=O)O)C(=O)N[C@@H](CO)C(=O)N[C@@H](CCCCN)C(=O)N[C@@H](CCCNC(=N)N)C(=O)N[C@@H](C)C(=O)N3)NC(=O)[C@H](CCCNC(=N)N)NC(=O)[C@H](CC(C)C)NC(=O)CNC(=O)[C@H](CCC(=O)O)NC2=O` [compound 722], at hNav1.6, the Nav1.6/Nav1.7 is over 442. For the same compound, the Nav1.4/Nav1.7 on hNav1.4 is over 442.
As to `C#CC[C@H](N)C(=O)N[C@@H](Cc1ccc(O)cc1)C(=O)N[C@H]1CSSC[C@@H]2NC(=O)[C@@H]3CSSC[C@@H](C(=O)N[C@@H](CCCNC(=N)N)C(=O)N[C@@H](CCCCN)C(=O)N[C@@H](CC(=O)O)C(=O)N[C@H](C(N)=O)[C@@H](C)CC)NC(=O)[C@H](Cc4c[nH]c5ccccc45)NC(=O)[C@H](CC(C)C)NC(=O)[C@H](CCCCN)NC(=O)[C@H](CSSC[C@H](NC(=O)[C@H]([C@@H](C)O)NC(=O)[C@H](Cc4c[nH]c5ccccc45)NC(=O)[C@H](CCCC)NC(=O)[C@H](Cc4c[nH]c5ccccc45)NC(=O)[C@H](CCCCN)NC(=O)[C@H](CCC(N)=O)NC1=O)C(=O)N[C@@H](CC(=O)O)C(=O)N[C@@H](CO)C(=O)N[C@@H](CCCCN)C(=O)N[C@@H](CCCNC(=N)N)C(=O)N[C@@H](C)C(=O)N3)NC(=O)[C@H](CCCNC(=N)N)NC(=O)[C@H](CC(C)C)NC(=O)CNC(=O)[C@H](CCC(=O)O)NC2=O` [compound 723], the Nav1.6/Nav1.7 on hNav1.6 is 270. Also, the IC50 on hNav1.6 was found to be 1620 nM; on hNav1.4, 78.4 nM; at hNav1.7, 5.98 nM. In addition, the Nav1.4/Nav1.7 at hNav1.4 worked out at 13.
For `C#CC[C@@H]1NC(=O)[C@@H]2CSSC[C@H](NC(=O)[C@H](Cc3ccc(O)cc3)NC(=O)[C@@H](N)CC#N)C(=O)N[C@@H](CCC(N)=O)C(=O)N[C@@H](CCCCN)C(=O)N[C@@H](Cc3c[nH]c4ccccc34)C(=O)N[C@@H](CCCC)C(=O)N[C@@H](Cc3c[nH]c4ccccc34)C(=O)N[C@@H]([C@@H](C)O)C(=O)N[C@H]3CSSC[C@H](NC(=O)[C@H](CCCNC(=N)N)NC(=O)[C@H](CC(C)C)NC(=O)CNC1=O)C(=O)N[C@@H](CCCCN)C(=O)N[C@@H](CC(C)C)C(=O)N[C@@H](Cc1c[nH]c4ccccc14)C(=O)N[C@H](C(=O)N[C@@H](CCCNC(=N)N)C(=O)N[C@@H](CCCCN)C(=O)N[C@@H](CCC(=O)O)C(=O)N[C@H](C(N)=O)[C@@H](C)CC)CSSC[C@H](NC(=O)[C@H](C)NC(=O)[C@H](CCCNC(=N)N)NC(=O)[C@H](CCC(=O)O)NC(=O)[C@H](CO)NC(=O)[C@H](CC(=O)O)NC3=O)C(=O)N2` [compound 732], on hNav1.6, the Nav1.6/Nav1.7 is on record as 1972. Further, the values for the half-inhibitory concentration (IC50) at hNav1.6, at hNav1.4 and on hNav1.7 were 1720 nM, 253 nM and 0.87 nM, respectively. At hNav1.4, the Nav1.4/Nav1.7 turned out to be 291.
In the same order, the values of `C#CC[C@@H]1NC(=O)[C@@H]2CSSC[C@H](NC(=O)[C@H](Cc3ccc(O)cc3)NC(=O)[C@@H](N)CC#N)C(=O)N[C@@H](CCC(N)=O)C(=O)N[C@@H](CCCCN)C(=O)N[C@@H](Cc3c[nH]c4ccccc34)C(=O)N[C@@H](CCCC)C(=O)N[C@@H](Cc3c[nH]c4ccccc34)C(=O)N[C@@H]([C@@H](C)O)C(=O)N[C@H]3CSSC[C@H](NC(=O)[C@H](CCCNC(=N)N)NC(=O)[C@H](CC(C)C)NC(=O)CNC1=O)C(=O)N[C@@H](CCCCN)C(=O)N[C@@H](CC(C)C)C(=O)N[C@@H](Cc1c[nH]c4ccccc14)C(=O)N[C@H](C(=O)N[C@@H](CCCNC(=N)N)C(=O)N[C@@H](CCCCN)C(=O)N[C@@H](CCC(=O)O)C(=O)N[C@H](C(N)=O)[C@@H](C)CC)CSSC[C@H](NC(=O)[C@H](CCC(=O)O)NC(=O)[C@H](CCCNC(=N)N)NC(=O)[C@H](CCCCN)NC(=O)[C@H](CO)NC(=O)[C@H](CC(=O)O)NC3=O)C(=O)N2` [compound 733] are 147, 175 nM, 130 nM, 1.19 nM and 109.
